Assay results as given in US20060100431A1, “Biologically active compounds” (Amura Therapeutics Limited, priority 2002, published 2006).

Molecular target: Wild-type cruzipain (Trypanosoma cruzi, UniProt P25779)
Assay: Trypanosoma cruzi cruzipain peptidase activity assay (Ki)
Format: biochemical
Settings: read-out: Ki, inhibitors of cruzain and cruzipains
Procedure: Unless otherwise stated, all general chemicals and biochemicals were purchased from either the Sigma Chemical Company, Poole, Dorset, U.K or from Fisher Scientific UK, Loughborough, Leicestershire, U.K. Absorbance assays were carried out in flat-bottomed 96-well plates (Spectra; Greiner Bio-One Ltd., Stonehouse, Gloucestershire, U.K.) using a SpectraMax PLUS384 plate reader (Molecular Devices, Crawley, U.K.). Fluorescence high throughput assays were carried out in either 384-well microtitre plates (Corning Costar 3705 plates, Fisher Scientific) or 96-well ‘U’ bottomed Microfluor W1 microtitre plates (Thermo Labsystems, Ashford, Middlesex, U.K.). Fluorescence assays were monitored using a SpectraMax Gemini fluorescence plate reader (Molecular Devices). For substrates employing either a 7-amino-4-methylcoumarin (AMC) or a 7-amino-4-trifluoromethylcoumarin (AFC) fluorophore, assays were monitored at an excitation wavelength of 365 nm and an emission wavelength of 450 nm and the fluorescence plate reader calibrated with AMC. For substrates employing a 3-amino-benzoyl (Abz) fluorophore, assays were monitored at an excitation wavelength of 310 nm and an emission wavelength of 445 nm; the fluorescence plate reader calibrated with 3-amino-benzamide (Fluka). Unless otherwise indicated, all the peptidase substrates were purchased from Bachem UK, St Helens, Merseyside, UK. Substrates utilizing fluorescence resonance energy transfer methodology (i.e. FRET-based substrates) were synthesized at Incenta Limited using published methods (Atherton & Sheppard, Solid Phase Peptide Synthesis, IRL Press, Oxford, U.K, 1989) and employed Abz (2-aminobenzoyl) as the fluorescence donor and 3-nitro-tyrosine [Tyr(NO2)] as the fluorescence quencher (Meldal, M. and Breddam, K., Anal. Biochem, 195, 141-147, 1991). Hydroxyethylpiperazine ethanesulfonate (HEPES), tris-hydroxylmethyl aminomethane (tris) base, bis-tris-propane and all the biological detergents (e.g. CHAPS, zwittergents, etc.) were purchased from CN Biosciences UK, Beeston, Nottinghamshire, U.K. Glycerol was purchased from Amersham Pharmacia Biotech, Little Chalfont, Buckinghamshire, U.K. Stock solutions of substrate or inhibitor were made up to 10 mM in 100% dimethylsulfoxide (DMSO) (Rathburns, Glasgow, U.K.) and diluted as appropriately required. In all cases the DMSO concentration in the assays was maintained at less than 1% (vol./vol.).
Assay protocols were based on literature precedent (Table 4; Barrett, A. J., Rawlings, N. D. and Woessner, J. F., 1998, Handbook of Proteolytic Enzymes, Academic Press, London and references therein) and modified as required to suit local assay protocols. Enzyme was added as required to initiate the reaction and the activity, as judged by the change in fluorescence upon conversion of substrate to product, was monitored over time. All assays were carried out at 25±1° C.
Wild-type cruzipain, derived from Trypanosoma cruzi Dm28 epimastigotes, was obtained from Dr. Julio Scharfstein (Instituto de Biofisica Carlos Chagas Filho, Universidade Federal do Rio de Janeiro, Rio de Janeiro, Brazil). Activity assays were carried out in 100 mM sodium phosphate, pH 6.75 containing 1 mM EDTA and 10 mM L-cysteine using 2.5 nM enzyme. […] The rate of conversion of substrate to product was derived from the slope of the increase in fluorescence monitored continuously over time.
The apparent inhibition constant (Ki) for each compound was determined on the basis that inhibition was reversible and occurred by a pure-competitive mechanism. The Ki values were calculated, from the dependence of enzyme activity as a function of inhibitor concentration, by direct regression analysis (Prism v 3.02) using Equation 2 (Cornish-Bowden, A., 1995.). [formula]

Wild-type cruzipain, sequence (P25779 whole entry): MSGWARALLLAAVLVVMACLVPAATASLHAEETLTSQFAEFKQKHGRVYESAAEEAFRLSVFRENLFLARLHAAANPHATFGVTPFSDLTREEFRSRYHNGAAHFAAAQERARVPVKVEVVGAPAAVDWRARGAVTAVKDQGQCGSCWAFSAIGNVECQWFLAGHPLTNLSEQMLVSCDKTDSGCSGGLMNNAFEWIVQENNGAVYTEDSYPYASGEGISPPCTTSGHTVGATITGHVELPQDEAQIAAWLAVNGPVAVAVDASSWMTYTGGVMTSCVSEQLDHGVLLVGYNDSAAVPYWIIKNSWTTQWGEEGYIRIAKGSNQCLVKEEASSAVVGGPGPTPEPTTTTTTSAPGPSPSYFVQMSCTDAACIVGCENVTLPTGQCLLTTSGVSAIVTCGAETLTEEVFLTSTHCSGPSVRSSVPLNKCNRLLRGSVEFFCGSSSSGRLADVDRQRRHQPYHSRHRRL

Ki | SMILES
< 5 µM | CN(C)c1ccc(C(=O)N[C@@H](Cc2ccc(O)cc2)C(=O)N2CC[C@@H]3[C@H]2C(=O)CN3C(=O)c2cccc([N+](=O)[O-])c2)cc1 [Example 321, (3aR,6aS)-4-Dimethylamino-N-{(1S)-1-(4-hydroxy-benzyl)-2-[4-(3-nitro-benzoyl)-6-oxo-hexahydro-pyrrolo[3,2-b]pyrrole-1-yl]-2-oxo-ethyl}-benzamide]
< 5 µM | O=C(N[C@@H](Cc1ccc(O)cc1)C(=O)N1CC[C@@H]2[C@H]1C(=O)CN2C(=O)c1ccccc1)c1cccnc1 [Example 336, (3aR,6aS)-N-[(1S)-2-(4-Benzoyl-6-oxo-hexahydro-pyrrolo[3,2-b]pyrrol-1-yl)-1-(4-hydroxy-benzyl)-2-oxo-ethyl]-nicotinamide]
< 5 µM | CC(C)C[C@H](NC(=O)c1ccc(C(C)(C)C)cc1)C(=O)N1CC[C@@H]2[C@H]1C(=O)CN2C(=O)c1cccc2ccccc12 [Example 33, (3aR,6aS)-tert-Butyl-N-{(1)-3-methyl-1-[4-(naphthalene-1-carbonyl)-6-oxo-hexahydro-pyrrolo[3,2-b]pyrrole-1-carbonyl-]-butyl}-benzamide]
< 5 µM | CC(C)C[C@H](NC(=O)c1ccc(N(C)C)cc1)C(=O)N1CC[C@@H]2[C@H]1C(=O)CN2C(=O)c1ccc(O)cc1 [Example 49, (3aR,6aS)-4-Dimethylamino-N-{(1S)-1-[4-(4-hydroxy-benzoyl)-6-oxo-hexahydro-pyrrolo[3,2-b]pyrrole-1-carbonyl]-3-methyl-butyl}-benzamide]
< 5 µM | CC(C)C[C@H](NC(=O)c1ccc(N(C)C)cc1)C(=O)N1CC[C@@H]2[C@H]1C(=O)CN2C(=O)[C@H]1CCCN1 [Example 157, (3aR,6aS)-4-Dimethylamino-N-{(1S)-3-methyl-1-[6-oxo-4-((2R)-pyrrolidine-2-carbonyl)-hexahydro-pyrrolo[3,2-b]pyrrole-1-carbonyl]-butyl}-benzamide]
< 5 µM | CC(C)(C)c1ccc(C(=O)N[C@@H](Cc2cccs2)C(=O)N2CC[C@@H]3[C@H]2C(=O)CN3C(=O)c2ccccc2)cc1 [Example 22, (3aR,6aS)-N-[(1S)-2-(4-Benzoyl-6-oxo-hexahydro-pyrrolo[3,2-b]pyrrol-1-yl)-2-oxo-1-thiophen-2-ylmethyl-ethyl]-4-tert-butyl-benzamide]
< 5 µM | O=C(N[C@@H](Cc1ccc(O)cc1)C(=O)N1CC[C@@H]2[C@H]1C(=O)CN2C(=O)c1ccc2ccccc2c1)c1cccc2ccccc12 [Example 302, (3aR,6aS)-Naphthalene-1-carboxylic acid {(1S)-1-(4-hydroxy-benzyl)-2-[4-(naphthalene-2-carbonyl)-6-oxo-hexahydro-pyrrolo[3,2-b]pyrrol-1-yl]-2-oxo-ethyl}-amide]
< 5 µM | CC(C)C[C@H](NC(=O)c1ccc(N(C)C)cc1)C(=O)N1CC[C@@H]2[C@H]1C(=O)CN2C(=O)CN(C)C [Example 227, (3aR,6aS)-4-Dimethylamino-N-{(1S)-1-[4-(2-dimethylamino-acetyl)-6-oxo-hexahydro-pyrrolo[3,2-b]pyrrole-1-carbonyl]-3-methyl-butyl}-benzamide]
< 5 µM | CC(C)C[C@H](NC(=O)c1ccc(N(C)C)cc1)C(=O)N1CC[C@@H]2[C@H]1C(=O)CN2C(=O)[C@H](C)N [Example 162, (3aR,6aS)-N-{(1S)-1-[4-((2S)-2-Amino-propionyl)-6-oxo-hexahydro-pyrrolo[3,2-b]pyrrole-1-carbonyl]-3-methyl-butyl}-4-dimethylamino-benzamide]
< 5 µM | CC(C)C[C@H](NC(=O)c1ccc(N(C)C)cc1)C(=O)N1CC[C@@H]2[C@H]1C(=O)CN2C(=O)c1ccc[n+]([O-])c1 [Example 81, (3aR,6aS)-4-Dimethylamino-N-{(1S)-3-methyl-1-[6-oxo-4-(1-oxy-pyridine-3-carbonyl)-hexahydro-pyrrolo[3,2-b]pyrrole-1-carbonyl]-butyl}-benzamide]
< 5 µM | CC(C)C[C@H](NC(=O)c1ccc(N(C)C)cc1)C(=O)N1CC[C@@H]2[C@H]1C(=O)CN2C(=O)[C@@H](N)C1CCCCC1 [Example 226, (3aR,6aS)-N-{(1S)-1-[4-((2S)-2-Amino-2-cyclohexyl-acetyl)-6-oxo-hexahydro-pyrrolo[3,2-b]pyrrole-1-carbonyl]-3-methyl-butyl}-4-dimethylamino-benzamide]
< 5 µM | CC(C)C[C@H](NC(=O)c1ccc(N(C)C)cc1)C(=O)N1CC[C@@H]2[C@H]1C(=O)CN2C(=O)CC1CCNCC1 [Example 240]
< 5 µM | CC(C)C[C@H](NC(=O)c1ccc(N(C)C)cc1)C(=O)N1CC[C@@H]2[C@H]1C(=O)CN2C(=O)c1ccccc1OC(F)(F)F [Example 168, (3aR,6aS)-4-Dimethylamino-N-{(1S)-3-methyl-1-[6-oxo-4-(2-trifluoromethoxy-benzoyl)-hexahydro-pyrrolo[3,2-b]pyrrole-1-carbonyl]-butyl}-benzamide]
< 5 µM | CN(C)c1ccc(C(=O)N[C@@H](Cc2ccc(O)cc2)C(=O)N2CC[C@@H]3[C@H]2C(=O)CN3C(=O)c2cccc(F)c2)cc1 [Example 322]
< 5 µM | CC(=O)N(C)[C@@H](CC(C)C)C(=O)N1CC(=O)[C@@H]2[C@H]1CCN2C(=O)[C@H](CC(C)C)NC(=O)c1ccc(N(C)C)cc1 [Example 221, (3aR,6aS)-N-((1S)-1-{4-[(2S)-2-(Acetyl-methyl-amino)-4-methyl-pentanoyl]-6-oxo-hexahydro-pyrrolo[3,2-b]pyrrole-1-carbonyl}-3-methyl-butyl)-4-dimethylamino-benzamide]
< 5 µM | CC(C)C[C@H](NC(=O)c1ccc(C(C)(C)C)cc1)C(=O)N1CC[C@@H]2[C@H]1C(=O)CN2C(=O)c1ccccn1 [Example 4, (3aR,6aS)-4-tert-Butyl-N-{(1S)-3-methyl-1-[6-oxo-4-(pyridine-2-carbonyl)-hexahydro-pyrrolo[3,2-b]pyrrole-1-carbonyl]-butyl}-benzamide]
< 5 µM | CC(C)C[C@H](NC(=O)c1ccc(N(C)C)cc1)C(=O)N1CC[C@@H]2[C@H]1C(=O)CN2C(=O)c1ccc(S(C)(=O)=O)s1 [Example 51, (3aR,6aS)-4-Dimethylamino-N-{(1S)-1-[4-(5-methanesulfonyl-thiophene-2-carbonyl)-6-oxo-hexahydro-pyrrolo[3,2-b]pyrrole-1-carbonyl]-3-methyl-butyl}-benzamide]
< 5 µM | CC[C@H](N)C(=O)N1CC(=O)[C@@H]2[C@H]1CCN2C(=O)[C@H](CC(C)C)NC(=O)c1ccc(N(C)C)cc1 [Example 203, (3aR,6aS)-N-{(1S)-1-[4-((2S)-2-Amino-butyryl)-6-oxo-hexahydro-pyrrolo[3,2-b]pyrrole-1-carbonyl]-3-methyl-butyl}-4-dimethylamino-benzamide]
< 5 µM | CC(C)C[C@H](NC(=O)c1ccc(N(C)C)cc1)C(=O)N1CC[C@@H]2[C@H]1C(=O)CN2C(=O)c1ccc(N2CCOCC2)nc1 [Example 94, (3aR,6aS)-4-Dimethylamino-N-{(1S)-3-methyl-1-[4-(6-morpholin-4-yl-pyridine-3-carbonyl)-6-oxo-hexahydro-pyrrolo[3,2-b]pyrrole-1-carbonyl]-butyl}-benzamide]
< 5 µM | CC(C)C[C@H](NC(=O)c1ccc(N(C)C)cc1)C(=O)N1CC[C@@H]2[C@H]1C(=O)CN2C(=O)[C@@H](N)C(C)C [Example 205, (3aR,6aS)-N-{(1S)-1-[4-((2S)-2-Amino-3-methyl-butyryl)-6-oxo-hexahydro-pyrrolo[3,2-b]pyrrole-1-carbonyl]-3-methyl-butyl}-4-dimethylamino-benzamide]
< 5 µM | Cc1ccc(C(=O)N[C@@H](Cc2ccc(O)cc2)C(=O)N2CC[C@@H]3[C@H]2C(=O)CN3C(=O)c2ccccc2)cc1Br [Example 337, (3aR,6aS)-N-[(1S)-2-(4-Benzoyl-6-oxo-hexahydro-pyrrolo[3,2-b]pyrrol-1-yl)-1-(4-hydroxy-benzyl)-2-oxo-ethyl)-3-bromo-4-methyl-benzamide]
